The values that follow come from ChEMBL document CHEMBL1157125, “Modifications of C-2 on the pyrroloquinoline template aimed at the development of potent herpesvirus antivirals with improved aqueous solubility” (Bioorg Med Chem Lett, 2010).

Common to all, as to format: ADME, organism-based
Series [1] can be described thus: Half life in rat. The settings on record: in vivo.
A short description of series [2]: Volume of distribution at steady state in rat. The settings on record: in vivo, read-out: Vdss.
Series [3] is described as follows: Oral bioavailability in rat. The settings on record: in vivo.
Series [4] is described as follows: Clearance in rat. As to conditions: in vivo.

`O=C(NCc1ccc(Cl)cc1)c1cn2c(CCO)cc3cc(CN4CCOCC4)cc(c1=O)c32`: the half-life in series [1] is 48 min. In series [2], the Vd stood at 1.7 L/kg. Also, in series [3], the bioavailability is 66%. The clearance in series [4] is 41.7 mL/min/kg.
